Earlier results, collected in patent US8105627B2, “Extended release venlafaxine tablet formulation” (priority 2003, dated 2012).
Structures can show the parent of a compound that is named as a salt.

Conditions: plural daily dosing regimen

COc1ccc(C(CN(C)C)C2(O)CCCCC2)cc1 (centres unmarked) [venlafaxine hydrochloride, 1-[(2-dimethylamino)-1-(4-methoxyphenyl)ethyl]cyclohexanol]
patients experiencing nausea: about forty five percent | patients in whom vomiting occurs: about seventeen percent
